This note sets out measurements from patent publication US8951964B2, “Phenanthridine macrocyclic hepatitis C serine protease inhibitors” (priority 2010, dated 2015).

Common to all, as to format: cell-based, HCV
Experiment [1] concerns genotype 3a NS3 gene in transient replicon. Briefly: 3a transient replicon (luciferase reporter). As to conditions: Hepatitis C virus, Huh-7, read-out: 3a transient replicon (nM). In general terms: Replicon systems follow genome replication, usually without infectious particles.
The subject of experiment [2] is genotype 1a transient replicon (1a-H77). Briefly: 1a transient replicon (luciferase reporter). As to conditions: Hepatitis C virus, HuH-7 cells, 5% FBS.
The subject of experiment [3] is genotype 1b transient replicon. Briefly: 1b transient replicon (luciferase reporter). As to conditions: Hepatitis C virus, HuH-7 cells, 5% FBS.

On to `Cc1cc(C(=O)N[C@H]2CCCCC/C=C\[C@@H]3C[C@@]3(C(=O)NS(=O)(=O)C3CC3)NC(=O)[C@@H]3C[C@@H](Oc4nc5cc(F)ccc5c5cc(OC(F)(F)F)ccc45)CN3C2=O)no1`, for which the figures for the EC50 in experiment [1], in experiment [2] and in experiment [3] were over 1 nM, under 100 pM and 100 to 500 pM, respectively.
On to `Cc1cc(C(=O)N[C@H]2CCCCC/C=C\[C@@H]3C[C@@]3(C(=O)NS(=O)(=O)C3CC3)NC(=O)[C@@H]3C[C@@H](Oc4nc5ccccc5c5cc(OC(F)(F)F)ccc45)CN3C2=O)no1`, for which the EC50 in experiment [1] was over 1 nM; in experiment [2] it was under 100 pM; in experiment [3], 100 to 500 pM.
As for `Cn1ccc(C(=O)N[C@H]2CCCCC/C=C\[C@@H]3C[C@@]3(C(=O)NS(=O)(=O)C3CC3)NC(=O)[C@@H]3C[C@@H](Oc4nc5ccccc5c5cc(OC(F)(F)F)ccc45)CN3C2=O)n1`, the results for the EC50 in experiment [1], in experiment [2] and in experiment [3] were over 1 nM, 100 to 500 pM and 100 to 500 pM, respectively.
As for `CC1(S(=O)(=O)NC(=O)[C@@]23C[C@H]2/C=C\CCCCC[C@H](NC(=O)c2ccon2)C(=O)N2C[C@H](Oc4nc5ccccc5c5cc(F)ccc45)C[C@H]2C(=O)N3)CC1`, the values for the EC50 in experiment [1], in experiment [2] and in experiment [3] were 0.5 to 1 nM, under 100 pM and 100 to 500 pM, respectively.
Take `Cc1ccc(C(=O)N[C@H]2CCCCC/C=C\[C@@H]3C[C@@]3(C(=O)NS(=O)(=O)C3(C)CC3)NC(=O)[C@@H]3C[C@@H](Oc4nc5ccccc5c5cc(F)ccc45)CN3C2=O)o1`: the EC50 in experiment [1] was 0.1 to 0.5 nM; in experiment [2], 100 to 500 pM; in experiment [3], 100 to 500 pM.
In the case of `Cc1ccc(C(=O)N[C@H]2CCCCC/C=C\[C@@H]3C[C@@]3(C(=O)NS(=O)(=O)C3(C)CC3)NC(=O)[C@@H]3C[C@@H](Oc4nc5cc(F)ccc5c5cc(F)ccc45)CN3C2=O)s1`, the figures for the EC50 in experiment [1], in experiment [2] and in experiment [3] were over 1 nM, 100 to 500 pM and 100 to 500 pM, respectively.
Consider `CC1(S(=O)(=O)NC(=O)[C@@]23C[C@H]2/C=C\CCCCC[C@H](NC(=O)c2ccn(C(F)F)n2)C(=O)N2C[C@H](Oc4nc5cc(F)ccc5c5ccc(OC(F)(F)F)cc45)C[C@H]2C(=O)N3)CC1`, for which the EC50 in experiment [1] was over 1 nM; in experiment [2] it was 100 to 500 pM; in experiment [3], 100 to 500 pM.
On to `Cn1ccc(C(=O)N[C@H]2CCCCC/C=C\[C@@H]3C[C@@]3(C(=O)NS(=O)(=O)C3(C)CC3)NC(=O)[C@@H]3C[C@@H](Oc4nc5ccccc5c5ccc(OC(F)(F)F)cc45)CN3C2=O)n1`, for which the results for the EC50 in experiment [1], in experiment [2] and in experiment [3] were 0.1 to 0.5 nM, 100 to 500 pM and 100 to 500 pM, respectively.
Regarding `Cc1ccc(C(=O)N[C@H]2CCCCC/C=C\[C@@H]3C[C@@]3(C(=O)NS(=O)(=O)C3(C)CC3)NC(=O)[C@@H]3C[C@@H](Oc4nc5ccccc5c5cc(F)ccc45)CN3C2=O)s1`, the EC50 was over 1 nM in experiment [1], 100 to 500 pM in experiment [2] and 100 to 500 pM in experiment [3].
As to `Cn1ccc(C(=O)N[C@H]2CCCCC/C=C\[C@@H]3C[C@@]3(C(=O)NS(=O)(=O)C3(C)CC3)NC(=O)[C@@H]3C[C@@H](Oc4nc5cc(F)ccc5c5ccc(OC(F)(F)F)cc45)CN3C2=O)n1`, the figures for the EC50 in experiment [1], in experiment [2] and in experiment [3] were 0.1 to 0.5 nM, under 100 pM and 100 to 500 pM, respectively.
The corresponding values for `Cc1cc(C(=O)N[C@H]2CCCCC/C=C\[C@@H]3C[C@@]3(C(=O)NS(=O)(=O)C3(C)CC3)NC(=O)[C@@H]3C[C@@H](Oc4nc5cc(F)ccc5c5ccc(OC(F)(F)F)cc45)CN3C2=O)no1` are over 1 nM, under 100 pM and 100 to 500 pM.
As for `CC1(S(=O)(=O)NC(=O)[C@@]23C[C@H]2/C=C\CCCCC[C@H](NC(=O)c2ccn(C(F)F)n2)C(=O)N2C[C@H](Oc4nc5ccccc5c5ccc(OC(F)(F)F)cc45)C[C@H]2C(=O)N3)CC1`, the EC50 in experiment [1] is over 1 nM; in experiment [2], 100 to 500 pM; in experiment [3], 100 to 500 pM.
As to `Cc1cc(C(=O)N[C@H]2CCCCC/C=C\[C@@H]3C[C@@]3(C(=O)NS(=O)(=O)C3(C)CC3)NC(=O)[C@@H]3C[C@@H](Oc4nc5ccccc5c5ccc(OC(F)(F)F)cc45)CN3C2=O)no1`, the EC50 in experiment [1] was over 1 nM; in experiment [2], under 100 pM; in experiment [3] it was 100 to 500 pM.
Consider `Cc1ccc(C(=O)N[C@H]2CCCCC/C=C\[C@@H]3C[C@@]3(C(=O)NS(=O)(=O)C3(C)CC3)NC(=O)[C@@H]3C[C@@H](Oc4nc5ccccc5c5ccc(OC(F)(F)F)cc45)CN3C2=O)o1`, for which the values for the EC50 in experiment [1], in experiment [2] and in experiment [3] were under 0.1 nM, 100 to 500 pM and 100 to 500 pM, respectively.
As for `CC1(S(=O)(=O)NC(=O)[C@@]23C[C@H]2/C=C\CCCCC[C@H](NC(=O)[C@H](O)C(F)(F)F)C(=O)N2C[C@H](Oc4nc5cc(F)ccc5c5cc(F)ccc45)C[C@H]2C(=O)N3)CC1`, the EC50 in experiment [1] was over 1 nM; in experiment [2], under 100 pM; in experiment [3], under 100 pM.
On to `CC1(S(=O)(=O)NC(=O)[C@@]23C[C@H]2/C=C\CCCCC[C@H](NC(=O)c2ccon2)C(=O)N2C[C@H](Oc4nc5cc(OC(F)(F)F)ccc5c5ccccc45)C[C@H]2C(=O)N3)CC1`, for which the EC50 is 0.1 to 0.5 nM in experiment [1], under 100 pM in experiment [2] and under 100 pM in experiment [3].
`CC1(S(=O)(=O)NC(=O)[C@@]23C[C@H]2/C=C\CCCCC[C@H](NC(=O)c2ccon2)C(=O)N2C[C@H](Oc4nc5cc(OC(F)(F)F)ccc5c5cc(F)ccc45)C[C@H]2C(=O)N3)CC1`: the EC50 was 0.1 to 0.5 nM in experiment [1], 100 to 500 pM in experiment [2] and 100 to 500 pM in experiment [3].
Turning to `Cc1ccc(C(=O)N[C@H]2CCCCC/C=C\[C@@H]3C[C@@]3(C(=O)NS(=O)(=O)C3(C)CC3)NC(=O)[C@@H]3C[C@@H](Oc4nc5cc(OC(F)(F)F)ccc5c5cc(F)ccc45)CN3C2=O)s1`, the EC50 in experiment [1] lay in the range of 0.1 to 0.5 nM; in experiment [2], 500 to 1000 pM; in experiment [3], 100 to 500 pM.
For the compound `CC1(S(=O)(=O)NC(=O)[C@@]23C[C@H]2/C=C\CCCCC[C@H](NC(=O)[C@H](O)C(F)(F)F)C(=O)N2C[C@H](Oc4nc5cc(OC(F)(F)F)ccc5c5ccccc45)C[C@H]2C(=O)N3)CC1`, the results for the EC50 in experiment [1], in experiment [2] and in experiment [3] were 0.5 to 1 nM, under 100 pM and under 100 pM, respectively.
With `Cn1ccc(C(=O)N[C@H]2CCCCC/C=C\[C@@H]3C[C@@]3(C(=O)NS(=O)(=O)C3(C)CC3)NC(=O)[C@@H]3C[C@@H](Oc4nc5cc(F)ccc5c5cc(OC(F)(F)F)ccc45)CN3C2=O)n1`, the EC50 is over 1 nM in experiment [1], 100 to 500 pM in experiment [2] and 100 to 500 pM in experiment [3].
As to `CC1(S(=O)(=O)NC(=O)[C@@]23C[C@H]2/C=C\CCCCC[C@H](NC(=O)c2ccon2)C(=O)N2C[C@H](Oc4nc5cc(F)ccc5c5cc(OC(F)(F)F)ccc45)C[C@H]2C(=O)N3)CC1`, the EC50 in experiment [1] was over 1 nM; in experiment [2] it was under 100 pM; in experiment [3] it was 100 to 500 pM.
The corresponding values for `CC1(S(=O)(=O)NC(=O)[C@@]23C[C@H]2/C=C\CCCCC[C@H](NC(=O)c2ccn(C(F)F)n2)C(=O)N2C[C@H](Oc4nc5cc(F)ccc5c5cc(OC(F)(F)F)ccc45)C[C@H]2C(=O)N3)CC1` are over 1 nM, 100 to 500 pM and 100 to 500 pM.
Turning to `COc1ccc2c(c1)nc(O[C@@H]1C[C@H]3C(=O)N[C@]4(C(=O)NS(=O)(=O)C5(C)CC5)C[C@H]4/C=C\CCCCC[C@H](NC(=O)c4ccn(C)n4)C(=O)N3C1)c1ccc(F)cc12`, the results for the EC50 in experiment [1], in experiment [2] and in experiment [3] were 0.1 to 0.5 nM, 100 to 500 pM and 100 to 500 pM, respectively.
In the case of `COc1ccc2c(c1)nc(O[C@@H]1C[C@H]3C(=O)N[C@]4(C(=O)NS(=O)(=O)C5(C)CC5)C[C@H]4/C=C\CCCCC[C@H](NC(=O)c4ccon4)C(=O)N3C1)c1ccc(F)cc12`, the EC50 in experiment [1] was 0.1 to 0.5 nM; in experiment [2] it was under 100 pM; in experiment [3] it was 100 to 500 pM.
On to `COc1ccc2c(c1)nc(O[C@@H]1C[C@H]3C(=O)N[C@]4(C(=O)NS(=O)(=O)C5(C)CC5)C[C@H]4/C=C\CCCCC[C@H](NC(=O)c4ccn(C(F)F)n4)C(=O)N3C1)c1ccc(F)cc12`, for which the EC50 lay within 0.5 to 1 nM in experiment [1], 100 to 500 pM in experiment [2] and 100 to 500 pM in experiment [3].
Consider `CC1(S(=O)(=O)NC(=O)[C@@]23C[C@H]2/C=C\CCCCC[C@H](NC(=O)[C@H](O)C(F)(F)F)C(=O)N2C[C@H](Oc4nc5cc(OC(F)(F)F)ccc5c5ccc(F)cc45)C[C@H]2C(=O)N3)CC1`, for which the values for the EC50 in experiment [1], in experiment [2] and in experiment [3] were over 1 nM, under 100 pM and under 100 pM, respectively.
Take `Cc1ccc(C(=O)N[C@H]2CCCCC/C=C\[C@@H]3C[C@@]3(C(=O)NS(=O)(=O)C3(C)CC3)NC(=O)[C@@H]3C[C@@H](Oc4nc5cc(OC(F)(F)F)ccc5c5ccc(F)cc45)CN3C2=O)s1`: the EC50 in experiment [1] was over 1 nM; in experiment [2] it was 100 to 500 pM; in experiment [3] it was 100 to 500 pM.
Consider `CC1(S(=O)(=O)NC(=O)[C@@]23C[C@H]2/C=C\CCCCC[C@H](NC(=O)c2ccon2)C(=O)N2C[C@H](Oc4nc5cc(OC(F)(F)F)ccc5c5ccc(F)cc45)C[C@H]2C(=O)N3)CC1`, for which the EC50 in experiment [1] is 0.5 to 1 nM; in experiment [2], under 100 pM; in experiment [3] it was under 100 pM.
On to `CC1(S(=O)(=O)NC(=O)[C@@]23C[C@H]2/C=C\CCCCC[C@H](NC(=O)c2cncs2)C(=O)N2C[C@H](Oc4nc5cc(OC(F)(F)F)ccc5c5ccc(F)cc45)C[C@H]2C(=O)N3)CC1`, for which the EC50 in experiment [1] was over 1 nM; in experiment [2], 100 to 500 pM; in experiment [3] it was 100 to 500 pM.
`Cc1cc(C(=O)N[C@H]2CCCCC/C=C\[C@@H]3C[C@@]3(C(=O)NS(=O)(=O)C3(C)CC3)NC(=O)[C@@H]3C[C@@H](Oc4nc5cc(OC(F)(F)F)ccc5c5ccc(F)cc45)CN3C2=O)no1`: the EC50 in experiment [1] is over 1 nM; in experiment [2] it was 100 to 500 pM; in experiment [3] it was 100 to 500 pM.
As for `Cn1ccc(C(=O)N[C@H]2CCCCC/C=C\[C@@H]3C[C@@]3(C(=O)NS(=O)(=O)C3(C)CC3)NC(=O)[C@@H]3C[C@@H](Oc4nc5cc(OC(F)(F)F)ccc5c5ccc(F)cc45)CN3C2=O)n1`, the EC50 is 0.1 to 0.5 nM in experiment [1], under 100 pM in experiment [2] and under 100 pM in experiment [3].
Turning to `CC1(S(=O)(=O)NC(=O)[C@@]23C[C@H]2/C=C\CCCCC[C@H](NC(=O)[C@H](O)C(F)(F)F)C(=O)N2C[C@H](Oc4nc5ccccc5c5cc(F)ccc45)C[C@H]2C(=O)N3)CC1`, the EC50 in experiment [1] was over 1 nM; in experiment [2] it was under 100 pM; in experiment [3] it was under 100 pM.
